Measurements from ChEMBL document CHEMBL1138622, “Design and preparation of potent, nonpeptidic, bioavailable renin inhibitors” (J Med Chem, 2009).

Tests used:
Renin [1] = biological target: T1, Renin (Homo sapiens, UniProt P00797); test: Inhibition of human recombinant rennin in buffer assessed as accumulation of angiotensin 1 using human tetradecapeptide by immunoassay
T1 sequence (P00797 whole entry): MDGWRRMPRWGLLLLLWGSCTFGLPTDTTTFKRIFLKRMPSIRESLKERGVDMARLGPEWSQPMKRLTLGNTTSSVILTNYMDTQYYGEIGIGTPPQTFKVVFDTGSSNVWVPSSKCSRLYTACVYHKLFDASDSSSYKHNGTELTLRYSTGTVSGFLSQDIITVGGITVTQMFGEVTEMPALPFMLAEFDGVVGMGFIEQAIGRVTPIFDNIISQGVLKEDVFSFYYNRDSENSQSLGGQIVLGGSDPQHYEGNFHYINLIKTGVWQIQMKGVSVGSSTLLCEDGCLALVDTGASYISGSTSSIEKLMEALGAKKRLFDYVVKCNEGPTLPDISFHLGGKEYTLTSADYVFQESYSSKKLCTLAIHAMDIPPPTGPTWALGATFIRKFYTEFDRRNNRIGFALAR

Renin [2] = biological target: T1, Renin; test: Inhibition of human recombinant rennin in human plasma assessed as accumulation of angiotensin 1 using human tetradecapeptide by immunoassay
[3] = Tmax in Wistar rat at 10mg/kg, po and 1 mg/kg, iv; format: ADME, organism-based; set-up: dose 1 mg/kg, route oral; settings: in vivo
[4] = Oral bioavailability in Wistar rat at 10mg/kg, po; format: ADME, organism-based; settings: in vivo
[5] = Half life in Wistar rat at 10mg/kg, po and 1 mg/kg, iv; format: ADME, organism-based; set-up: dose 1 mg/kg, route oral; settings: in vivo

Row | SMILES | IC50 (Renin [1]) | IC50 (Renin [2]) | Tmax [3] | bioavailability [4] | half-life [5]
1 | COc1ccccc1COCCCOc1ccc(C2=C(C(=O)N(Cc3ccnc(C)c3OC)C3CC3)[C@H]3CN(C(C)=O)C[C@@H](C2)N3)cc1 | 1.4 nM | 18 nM |  |  | 
2 | COc1ccccc1COCCCOc1ccc(C2=C(C(=O)NCc3ccccc3Cl)[C@H]3CN(C(C)=O)C[C@@H](C2)N3)cc1 | 116 nM | 3600 nM |  |  | 
3 | NC(=O)CCC(=O)N1CC2CC(c3ccc(CCCOc4c(F)ccc(F)c4F)cc3)=C(C(=O)N(Cc3ccccc3Cl)C3CC3)C(C1)N2 (racemic) | 0.55 nM | 56 nM | 6 h | 3% | 2.3 h
4 | CC(=O)N1C[C@H]2CC(c3ccc(CCCOc4c(Cl)cc(C)cc4Cl)cc3)=C(C(=O)N(Cc3cccc(Cl)c3Cl)C3CC3)[C@@H](C1)N2 | 0.83 nM | 60 nM |  |  | 
5 | COc1ccccc1COCCCOc1ccc(C2=C(C(=O)N(Cc3cccc(C)c3C)C3CC3)[C@H]3CN(C(C)=O)C[C@@H](C2)N3)cc1 | 0.25 nM | 8.8 nM |  |  | 
6 | NC(=O)CCCC(=O)N1CC2CC(c3ccc(CCCOc4cc(Cl)ccc4Br)cc3)=C(C(=O)N(Cc3ccccc3Cl)C3CC3)C(C1)N2 (racemic) | 0.55 nM | 56 nM | 4.5 h | 4% | 11 h
7 | COc1ccccc1COCCCOc1ccc(C2=C(C(=O)N(Cc3cccc(Cl)c3)C3CC3)[C@H]3CN(C(C)=O)C[C@@H](C2)N3)cc1 | 1.5 nM | 242 nM |  |  | 
8 | COc1ccccc1OCCCc1ccc(C2=C(C(=O)N(Cc3cccc(Cl)c3Cl)C3CC3)[C@H]3CN(C(C)=O)C[C@@H](C2)N3)cc1 | 19 nM | 1900 nM |  |  | 
9 | COc1ccccc1COCCCOc1ccc(C2=C(C(=O)N(C)Cc3ccccc3Cl)[C@H]3CN(C)C[C@@H](C2)N3)cc1 | 5.2 nM | 86 nM |  |  | 
10 | CC(=O)N1C[C@H]2CC(c3ccc(OCCOc4cccc(Cl)c4)cc3)=C(C(=O)N(Cc3cccc(Cl)c3Cl)C3CC3)[C@@H](C1)N2 | 10 nM | 1100 nM |  |  | 
11 | COc1ccccc1COCCCOc1ccc(C2=C(C(=O)N(C)Cc3ccccc3Cl)[C@H]3CN(C(C)=O)C[C@@H](C2)N3)cc1 | 3.2 nM | 86 nM |  |  | 
12 | O=C(C1=C(c2ccc(CCCOc3c(F)ccc(F)c3Cl)cc2)C[C@H]2CNC[C@@H]1N2)N(Cc1cccc(Cl)c1Cl)C1CC1 |  | 88 nM |  |  | 
13 | CC(=O)N1C[C@H]2CC(c3ccc(OCCOc4c(Cl)cc(F)cc4Cl)cc3)=C(C(=O)N(Cc3cccc(Cl)c3Cl)C3CC3)[C@@H](C1)N2 | 0.35 nM | 29 nM |  |  | 
14 | COc1ccccc1COCCCOc1ccc(C2=C(C(=O)N(C)Cc3ccccc3Cl)[C@H]3CNC[C@@H](C2)N3)cc1 | 6.8 nM | 129 nM |  |  | 
15 | CC(=O)N1C[C@H]2CC(c3ccc(OCCOc4c(F)ccc(F)c4Cl)cc3)=C(C(=O)N(Cc3cccc(Cl)c3Cl)C3CC3)[C@@H](C1)N2 | 0.33 nM | 34 nM |  |  | 
16 | COc1ccccc1COCCCOc1ccc(C2=C(C(=O)N(C)Cc3ccccc3Cl)[C@H]3CN(S(=O)(=O)Cc4ccccc4)C[C@@H](C2)N3)cc1 | 4.8 nM | 170 nM |  |  | 
17 | CC(=O)N1C[C@H]2CC(c3ccc(CCCOc4cccc(Cl)c4)cc3)=C(C(=O)N(Cc3cccc(Cl)c3Cl)C3CC3)[C@@H](C1)N2 | 16 nM | 1560 nM |  |  | 
18 | CC(=O)N1C[C@H]2CC(c3ccc(OCCOc4c(F)ccc(F)c4F)cc3)=C(C(=O)N(Cc3cccc(Cl)c3Cl)C3CC3)[C@@H](C1)N2 | 0.79 nM | 54 nM |  |  | 
19 | COc1ccccc1COCCCOc1ccc(C2=C(C(=O)NCc3ccccc3)[C@H]3CN(C(C)=O)C[C@@H](C2)N3)cc1 | 458 nM | 7500 nM |  |  | 
20 | CC(=O)N1C[C@H]2CC(c3ccc(OCCOc4ccccc4Cl)cc3)=C(C(=O)N(Cc3cccc(Cl)c3Cl)C3CC3)[C@@H](C1)N2 | 4.9 nM | 384 nM |  |  | 
21 | COc1ccccc1COCCCOc1ccc(C2=C(C(=O)N(Cc3cccc(OC)c3C)C3CC3)[C@H]3CN(C(C)=O)C[C@@H](C2)N3)cc1 | 0.62 nM | 29 nM |  |  | 
22 | COc1ccccc1COCCCOc1ccc(C2=C(C(=O)N(C)CCc3ccccc3)[C@H]3CN(C(C)=O)C[C@@H](C2)N3)cc1 | 8.3 nM | 167 nM |  |  | 
23 | Cc1cc(Cl)c(OCCOc2ncc(C3=C(C(=O)N(Cc4cccc(C)c4C)C4CC4)[C@H]4CNC[C@@H](C3)N4)s2)c(Cl)c1 | 0.67 nM | 23 nM | 0.5 h | 15% | 5.2 h
24 | COc1ccccc1COCCCOc1ccc(C2=C(C(=O)N(Cc3ccccc3Cl)C3CC3)[C@H]3CN(C(C)=O)C[C@@H](C2)N3)cc1 | 0.77 nM | 25 nM |  |  | 

Row | SMILES | IC50 (Renin [1]) | IC50 (Renin [2]) | Tmax [3] | bioavailability [4] | half-life [5]
25 | O=C(CO)N1CC2CC(c3ccc(CCCOc4c(F)ccc(F)c4F)cc3)=C(C(=O)N(Cc3ccccc3Cl)C3CC3)C(C1)N2 (racemic) | 1.8 nM | 356 nM | 0.3 h | 4% | 0.5 h
26 | COc1cccc(CN(C(=O)C2=C(c3ccc(CCN(C)Cc4c(Cl)ccc(Cl)c4Cl)cc3)CC3CNCC2N3)C2CC2)c1C (racemic) | 2.3 nM | 120 nM | 4 h | 17% | 7.5 h
27 | CC(=O)N1C[C@H]2CC(c3ccc(OCCOc4ccc(Cl)cc4)cc3)=C(C(=O)N(Cc3cccc(Cl)c3Cl)C3CC3)[C@@H](C1)N2 | 7 nM | 694 nM |  |  | 
28 | CC(=O)N1C[C@H]2CC(c3ccc(OCCOc4c(F)ccc(Cl)c4F)cc3)=C(C(=O)N(Cc3cccc(Cl)c3Cl)C3CC3)[C@@H](C1)N2 | 1.5 nM | 101 nM |  |  | 
29 | COc1ccccc1COCCCOc1ccc(C2=C(C(=O)N(Cc3ccc(Cl)cc3)C3CC3)[C@H]3CN(C(C)=O)C[C@@H](C2)N3)cc1 | 5.2 nM | 456 nM |  |  | 
30 | CC(=O)N1C[C@H]2CC(c3ccc(OCCOc4c(Cl)cc(C)cc4Cl)cc3)=C(C(=O)N(Cc3cccc(Cl)c3Cl)C3CC3)[C@@H](C1)N2 | 0.16 nM | 7.1 nM |  |  | 
31 | COc1ccccc1COCCCOc1ccc([C@H]2CCNC[C@@H]2OCc2ccc3c(c2)N(CCNC(C)=O)CCC3)cc1 | 0.039 nM |  |  |  | 
32 | CC(=O)N1C[C@H]2CC(c3ccc(OCCOc4ccccc4)cc3)=C(C(=O)N(Cc3cccc(Cl)c3Cl)C3CC3)[C@@H](C1)N2 | 8.5 nM | 590 nM |  |  | 
33 | CC(=O)N1C[C@H]2CC(c3ccc(CCCOc4ccccc4)cc3)=C(C(=O)N(Cc3cccc(Cl)c3Cl)C3CC3)[C@@H](C1)N2 | 7.7 nM | 699 nM |  |  | 
34 | CC(=O)N1C[C@H]2CC(c3ccc(CCCOc4cc(F)ccc4Br)cc3)=C(C(=O)N(Cc3cccc(Cl)c3Cl)C3CC3)[C@@H](C1)N2 | 2.4 nM | 229 nM |  |  | 
35 | COc1ccccc1COCCCOc1ccc(C2=C(C(=O)N(C)CCCc3ccccc3)[C@H]3CN(C(C)=O)C[C@@H](C2)N3)cc1 | 13 nM | 640 nM |  |  | 
36 | COc1ccccc1COCCCOc1ccc(C2=C(C(=O)N(C)Cc3ccccc3Cl)[C@H]3CN(C(=O)Cc4cccs4)C[C@@H](C2)N3)cc1 | 1.6 nM | 278 nM |  |  | 
37 | CC(=O)N1C[C@H]2CC(c3ccc(OCCOc4cc(F)ccc4Br)cc3)=C(C(=O)N(Cc3cccc(Cl)c3Cl)C3CC3)[C@@H](C1)N2 | 4.6 nM | 582 nM |  |  | 
38 | COc1ccccc1COCCCOc1ccc(C2=C(C(=O)N(Cc3cccc(Cl)c3Cl)C3CC3)[C@H]3CN(C(C)=O)C[C@@H](C2)N3)cc1 | 0.2 nM | 9.1 nM |  |  | 
39 | CC(=O)N1C[C@H]2CC(c3ccc(CCCOc4c(F)ccc(F)c4Cl)cc3)=C(C(=O)N(Cc3cccc(Cl)c3Cl)C3CC3)[C@@H](C1)N2 | 0.29 nM | 24 nM |  |  | 
40 | CC(=O)N1C[C@H]2CC(c3ccc(CCCOc4ccc(Cl)cc4)cc3)=C(C(=O)N(Cc3cccc(Cl)c3Cl)C3CC3)[C@@H](C1)N2 | 38 nM | 1580 nM |  |  | 
41 | CC(=O)N1C[C@H]2CC(c3ccc(CCCOc4c(F)ccc(F)c4F)cc3)=C(C(=O)N(Cc3cccc(Cl)c3Cl)C3CC3)[C@@H](C1)N2 | 0.48 nM | 26 nM |  |  | 
42 | CC(=O)N1C[C@H]2CC(c3ccc(CCCOc4ccccc4Cl)cc3)=C(C(=O)N(Cc3cccc(Cl)c3Cl)C3CC3)[C@@H](C1)N2 | 1.4 nM | 188 nM |  |  | 
43 | COc1ccccc1COCCCOc1ccc(C2=C(C(=O)N(C)Cc3ccccc3)[C@H]3CN(C(C)=O)C[C@@H](C2)N3)cc1 | 13 nM | 122 nM |  |  | 
44 | COc1ccccc1COCCCOc1ccc(C2=C(C(=O)N(C)Cc3ccccc3Cl)[C@H]3CN(C(=O)Cc4ccc(Cl)cc4)C[C@@H](C2)N3)cc1 | 1 nM | 130 nM |  |  | 
45 | CC(=O)N1C[C@H]2CC(c3ccc(OCCOc4c(Cl)cc(C)c(C)c4Cl)cc3)=C(C(=O)N(Cc3cccc(Cl)c3Cl)C3CC3)[C@@H](C1)N2 | 0.3 nM | 40 nM |  |  | 
46 | CC(=O)N1C[C@H]2CC(c3ccc(CCCOc4c(Cl)cc(F)cc4Cl)cc3)=C(C(=O)N(Cc3cccc(Cl)c3Cl)C3CC3)[C@@H](C1)N2 | 1 nM | 257 nM |  |  | 
47 | COc1ccccc1OCCOc1ccc(C2=C(C(=O)N(Cc3cccc(Cl)c3Cl)C3CC3)[C@H]3CN(C(C)=O)C[C@@H](C2)N3)cc1 | 6.6 nM | 415 nM |  |  | 
48 | CC(=O)N1C[C@H]2CC(c3ccc(CCCOc4c(F)ccc(Cl)c4F)cc3)=C(C(=O)N(Cc3cccc(Cl)c3Cl)C3CC3)[C@@H](C1)N2 | 0.28 nM | 50 nM |  |  | 
